Experimental data published in patent US20090005363A1, “Organic Compounds” (priority 2005, published 2009).

Biological target: mGluR5 (Homo sapiens, UniProt P41594)
Experiment: inhibition of the glutamate induced elevation of intracellular Ca2+ concentration
Conditions: for mGluR5 Activity inh. at 10 μM [%]: inhibition of glutamate induced elevation of intracellular Ca2+ concentration at 10 μM; for inhibition at 10 µM: read-out: mGluR5 Activity inh. at 10 μM [%]
Description: This can be determined in vitro for example at recombinant human metabotropic glutamate receptors, especially PLC-coupled subtypes thereof such as mGluR5, using different procedures like, for example, measurement of the inhibition of the agonist induced elevation of intracellular Ca^2+ concentration in accordance with L. P. Daggett et al., Neuropharm.

mGluR5, sequence (P41594 21-1180 isoform P41594-2 limits assumed): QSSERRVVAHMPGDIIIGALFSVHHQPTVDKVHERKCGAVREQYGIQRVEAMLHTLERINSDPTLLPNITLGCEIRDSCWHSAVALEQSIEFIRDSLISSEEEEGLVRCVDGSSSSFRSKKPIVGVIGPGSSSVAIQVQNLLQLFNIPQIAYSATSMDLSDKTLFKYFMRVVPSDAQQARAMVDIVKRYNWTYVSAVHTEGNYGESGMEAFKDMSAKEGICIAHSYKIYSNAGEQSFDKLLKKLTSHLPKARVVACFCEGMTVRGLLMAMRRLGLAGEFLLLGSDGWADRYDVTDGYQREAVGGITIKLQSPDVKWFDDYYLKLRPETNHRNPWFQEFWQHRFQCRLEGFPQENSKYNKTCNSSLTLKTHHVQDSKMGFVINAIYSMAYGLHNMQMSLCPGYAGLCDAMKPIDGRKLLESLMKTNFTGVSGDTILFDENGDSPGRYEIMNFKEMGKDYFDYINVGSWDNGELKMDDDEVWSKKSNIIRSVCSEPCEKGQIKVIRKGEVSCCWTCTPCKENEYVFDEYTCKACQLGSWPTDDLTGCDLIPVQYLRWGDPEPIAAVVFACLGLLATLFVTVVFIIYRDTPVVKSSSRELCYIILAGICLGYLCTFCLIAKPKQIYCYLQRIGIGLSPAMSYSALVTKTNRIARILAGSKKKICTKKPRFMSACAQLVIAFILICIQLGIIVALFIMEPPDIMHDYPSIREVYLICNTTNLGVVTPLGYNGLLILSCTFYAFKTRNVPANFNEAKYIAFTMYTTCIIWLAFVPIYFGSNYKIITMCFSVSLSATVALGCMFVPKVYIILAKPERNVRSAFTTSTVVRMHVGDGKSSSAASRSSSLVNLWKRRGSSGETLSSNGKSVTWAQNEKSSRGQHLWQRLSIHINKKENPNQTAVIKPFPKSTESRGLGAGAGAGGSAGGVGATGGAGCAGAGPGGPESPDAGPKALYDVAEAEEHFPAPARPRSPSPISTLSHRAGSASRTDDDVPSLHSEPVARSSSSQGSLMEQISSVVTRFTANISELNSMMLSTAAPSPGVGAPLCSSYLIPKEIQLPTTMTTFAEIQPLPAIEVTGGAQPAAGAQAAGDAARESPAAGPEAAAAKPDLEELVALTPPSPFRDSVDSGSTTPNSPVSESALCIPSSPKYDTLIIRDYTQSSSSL

Compound	mGluR5 Activity inh. at 10 μM [%]	inhibition at 10 µM [%]
Cc1ccc(Nc2ccc(C(=O)N3CCC[C@H](C)C3)cn2)cn1 [Compound 4.13a, (S-3-Methyl-piperidin-1-yl)-[6-(6-methyl-pyridin-3-ylamino)-pyridin-3-yl]-methanone]	97	–
Cc1ccc(Nc2ccc(C(=O)N3CCC[C@@H](C)C3)cn2)cn1 [Compound 4.13b, (R-3-Methyl-piperidin-1-yl)-[6-(6-methyl-pyridin-3-ylamino)-pyridin-3-yl]-methanone]	–	96
Cc1ccc(Nc2ccc(C(=O)N3CCCCCC3)cn2)cn1 [Compound 4.15, Azepan-1-yl-[6-(6-methyl-pyridin-3-ylamino)-pyridin-3-yl]-methanone]	–	98
Cc1ccc(Nc2ccc(C(=O)N3CCCCCCC3)cn2)cn1 [Compound 4.16, Azocan-1-yl-[6-(6-methyl-pyridin-3-ylamino)-pyridin-3-yl]-methanone]	–	81
Cc1ccc(Nc2ncc(C(=O)N3CCCC(C)C3C)cc2Cl)cn1 (stereo not shown) [Compound 4.20, [5-Chloro-6-(6-methyl-pyridin-3-ylamino)-pyridin-3-yl]-(2,3-dimethyl-piperidin-1-yl)-methanone]	–	100
Cc1ccc(Nc2ncc(C(=O)N3CCC[C@H](C)[C@@H]3C)cc2Cl)cn1 [Compound 4.21, [5-Chloro-6-(6-methyl-pyridin-3-ylamino)-pyridin-3-yl]-((2S,3S)-2,3-dimethyl-piperidin-1-yl)-methanone]	–	99
Cc1ccc(Nc2ncc(C(=O)N3CCC[C@@H](C)[C@H]3C)cc2Cl)cn1 [Compound 4.22, [5-Chloro-6-(6-methyl-pyridin-3-ylamino)-pyridin-3-yl]-((2R,3R)-2,3-dimethyl-piperidin-1-yl)-methanone]	–	98
Cc1ccc(Nc2ncc(C(=O)N3CCCC[C@@H]3C)cc2Cl)cn1 [Compound 4.23, [5-Chloro-6-(6-methyl-pyridin-3-ylamino)-pyridin-3-yl]-((S)-2-methyl-piperidin-1-yl)-methanone]	–	95
Cc1ccc(Nc2ncc(C(=O)N3CCCC[C@H]3C)cc2Cl)cn1 [Compound 4.24, [5-Chloro-6-(6-methyl-pyridin-3-ylamino)-pyridin-3-yl]-((R)-2-methyl-piperidin-1-yl)-methanone]	–	92
Cc1ccc(Nc2ncc(C(=O)N3CCCC4CCCC43)cc2Cl)cn1 (stereo not shown) [Compound 4.25, [5-Chloro-6-(6-methyl-pyridin-3-ylamino)-pyridin-3-yl]-(octahydro-[1]pyridin-1-yl)-methanone]	98	–
Cc1ccc(Nc2ncc(C(=O)N3CCC[C@@H]4CCC[C@@H]43)cc2Cl)cn1 [Compound 4.26, [5-Chloro-6-(6-methyl-pyridin-3-ylamino)-pyridin-3-yl]-(4aS,7aS)-octahydro-[1]pyridin-1-yl-methanone]	93	–
Cc1ccc(Nc2ncc(C(=O)N3CCCCC3C(C)C)cc2Cl)cn1 (stereo not shown) [Compound 4.28, [5-Chloro-6-(6-methyl-pyridin-3-ylamino)-pyridin-3-yl]-(2-isopropyl-piperidin-1-yl)-methanone]	–	93
Cc1ccc(Nc2ncc(C(=O)N3CCCC[C@@H]3C(C)C)cc2Cl)cn1 [Compound 4.29, [5-Chloro-6-(6-methyl-pyridin-3-ylamino)-pyridin-3-yl]-((R)-2-isopropyl-piperidin-1-yl)-methanone]	–	86
Cc1ccc(Nc2ncc(C(=O)N3CCCC[C@H]3C(C)C)cc2Cl)cn1 [Compound 4.30, [5-Chloro-6-(6-methyl-pyridin-3-ylamino)-pyridin-3-yl]-((S)-2-isopropyl-piperidin-1-yl)-methanone]	–	96
CCC(CC)C1CCCCN1C(=O)c1cnc(Nc2ccc(C)nc2)c(Cl)c1 (stereo not shown) [Compound 4.39, [5-Chloro-6-(6-methyl-pyridin-3-ylamino)-pyridin-3-yl]-[2-(1-ethyl-propyl)-piperidin-1-yl]-methanone]	–	96
Cc1ccc(Nc2ncc(C(=O)N3CCCCC3c3ccccc3)cc2Cl)cn1 (stereo not shown) [Compound 4.41, [5-Chloro-6-(6-methyl-pyridin-3-ylamino)-pyridin-3-yl]-(2-phenyl-piperidin-1-yl)-methanone]	–	96
Cc1ccc(Nc2ncc(C(=O)N3CCCCC3c3ccccn3)cc2Cl)cn1 (stereo not shown) [Compound 4.42, [5-Chloro-6-(6-methyl-pyridin-3-ylamino)-pyridin-3-yl]-(3,4,5,6-tetrahydro-2H-[2,2′]bipyridinyl-1-yl)-methanone]	–	98
Cc1ccc(Nc2ncc(C(=O)N3CCCCC3c3cccnc3)cc2Cl)cn1 (stereo not shown) [Compound 4.43, [5-Chloro-6-(6-methyl-pyridin-3-ylamino)-pyridin-3-yl]-(3,4,5,6-tetrahydro-2H-[2,3′]bipyridinyl-1-yl)-methanone]	–	100
Cc1ccc(Nc2ncc(C(=O)N3CCCCC3C3CCCO3)cc2Cl)cn1 (stereo not shown) [Compound 4.44, [5-Chloro-6-(6-methyl-pyridin-3-ylamino)-pyridin-3-yl]-[2-(tetrahydro-furan-2-yl)-piperidin-1-yl]-methanone]	–	99
Cc1ccc(Nc2ncc(C(=O)N3CCCCC3c3ccc(C)o3)cc2Cl)cn1 (stereo not shown) [Compound 4.45, [5-Chloro-6-(6-methyl-pyridin-3-ylamino)-pyridin-3-yl]-[2-(5-methyl-furan-2-yl)-piperidin-1-yl]-methanone]	–	90
Cc1ccc(Nc2ncc(C(=O)N3CCCCC3c3ncco3)cc2Cl)cn1 (stereo not shown) [Compound 4.46, [5-Chloro-6-(6-methyl-pyridin-3-ylamino)-pyridin-3-yl]-(2-oxazol-2-yl-piperidin-1-yl)-methanone]	–	94
Cc1ccc(Nc2ncc(C(=O)N3CCCCC3CCCl)cc2Cl)cn1 (stereo not shown) [Compound 4.47, [2-(2-Chloro-ethyl)-piperidin-1-yl]-[5-chloro-6-(6-methyl-pyridin-3-ylamino)-pyridin-3-yl]-methanone]	–	97
Cc1ccc(Nc2ncc(C(=O)N3C(C)(C)CCCC3(C)C)cc2Cl)cn1 [Compound 4.49, [5-Chloro-6-(6-methyl-pyridin-3-ylamino)-pyridin-3-yl]-(2,2,6,6-tetramethyl-piperidin-1-yl)-methanone]	–	66
CC[C@@H]1CCCCN1C(=O)c1cnc(Nc2ccc(Cl)cc2)c(Cl)c1 [Compound 4.54, [5-Chloro-6-(4-chloro-phenylamino)-pyridin-3-yl]-((R)-2-ethyl-piperidin-1-yl)-methanone]	–	97
C=CC1CCCCN1C(=O)c1cnc(Nc2ccc(C)nc2)c(Cl)c1 (stereo not shown) [Compound 4.55, [5-Chloro-6-(6-methyl-pyridin-3-ylamino)-pyridin-3-yl]-(2-vinyl-piperidin-1-yl)-methanone]	–	96

Second part, the compound after the results:

mGluR5 Activity inh. at 10 μM [%]	inhibition at 10 µM [%]	Compound
–	98	CCC1CCCCN1C(=O)c1cnc(Nc2ccc(C)nc2)c(Cl)c1 (stereo not shown) [Compound 4.17, [5-Chloro-6-(6-methyl-pyridin-3-ylamino)-pyridin-3-yl]-(2-ethyl-piperidin-1-yl)-methanone]
–	97	CC[C@@H]1CCCCN1C(=O)c1cnc(Nc2ccc(C)nc2)c(Cl)c1 [Compound 4.18, [5-Chloro-6-(6-methyl-pyridin-3-ylamino)-pyridin-3-yl]-((R)-2-ethyl-piperidin-1-yl)-methanone]
–	97	CC[C@H]1CCCCN1C(=O)c1cnc(Nc2ccc(C)nc2)c(Cl)c1 [Compound 4.19, [5-Chloro-6-(6-methyl-pyridin-3-ylamino)-pyridin-3-yl]-((S)-2-ethyl-piperidin-1-yl)-methanone]
–	98	CCCC1CCCCN1C(=O)c1cnc(Nc2ccc(C)nc2)c(Cl)c1 (stereo not shown) [Compound 4.34, [5-Chloro-6-(6-methyl-pyridin-3-ylamino)-pyridin-3-yl]-(2-propyl-piperidin-1-yl)-methanone]
–	85	CCC[C@H]1CCCCN1C(=O)c1cnc(Nc2ccc(C)nc2)c(Cl)c1 [Compound 4.35, [5-Chloro-6-(6-methyl-pyridin-3-ylamino)-pyridin-3-yl]-((S)-2-propyl-piperidin-1-yl)-methanone]
–	94	CCC1CCCN(C(=O)c2cnc(Nc3ccc(C)nc3)c(Cl)c2)C1CC (stereo not shown) [Compound 4.37, [5-Chloro-6-(6-methyl-pyridin-3-ylamino)-pyridin-3-yl]-(2,3-diethyl-piperidin-1-yl)-methanone]
–	98	CCCCC1CCCCN1C(=O)c1cnc(Nc2ccc(C)nc2)c(Cl)c1 (stereo not shown) [Compound 4.38, (2-Butyl-piperidin-1-yl)-[5-chloro-6(6-methyl-pyridin-3-ylamino)-pyridin-3-yl]-methanone]
–	98	CCC1C(C)CCCN1C(=O)c1cnc(Nc2ccc(C)nc2)c(Cl)c1 (stereo not shown) [Compound 4.40, [5-Chloro-6-(6-methyl-pyridin-3-ylamino)-pyridin-3-yl]-(2-ethyl-3-methyl-piperidin-1-yl)-methanone]
–	99	Cc1ccc(Nc2ncc(C(=O)N3C(C)CCCC3C)cc2Cl)cn1 (stereo not shown) [Compound 4.48, [5-Chloro-6-(6-methyl-pyridin-3-ylamino)-pyridin-3-yl]-(2,6-dimethyl-piperidin-1-yl)-methanone]
–	98	CCCC1CCCC(C)N1C(=O)c1cnc(Nc2ccc(C)nc2)c(Cl)c1 (stereo not shown) [Compound 4.50, [5-Chloro-6-(6-methyl-pyridin-3-ylamino)-pyridin-3-yl]-(2-methyl-6-propyl-piperidin-1-yl)-methanone]
–	96	CCC[C@@H]1CCC[C@@H](CC)N1C(=O)c1cnc(Nc2ccc(C)nc2)c(Cl)c1 [Compound 4.51, [5-Chloro-6-(6-methyl-pyridin-3-ylamino)-pyridin-3-yl]-((2R,6R)-2-ethyl-6-propyl-piperidin-1-yl)-methanone]
–	96	CCCC1CCC(C)CN1C(=O)c1cnc(Nc2ccc(C)nc2)c(Cl)c1 (stereo not shown) [Compound 4.52, [5-Chloro-6-(6-methyl-pyridin-3-ylamino)-pyridin-3-yl]-(5-methyl-2-propyl-piperidin-1-yl)-methanone]
